# Counter-ions that a name gives are not always drawn. Like-named read-outs stand apart in the source and are kept apart here.
# Tests used:
# Type in all cases: biochemical
# [1] = molecular target: T1, recombinant human DAO (diamine oxidase) (Homo sapiens, UniProt P19801); experiment: Activity on recombinant human DAO, Amplex Red method, 1 mM putrescine substrate; details: recombinant human DAO, read-out: Inhibitory Activity (IC50, nM) DAO
# T1 construct: purchased R&D systems
# T1 sequence (P19801 20-751): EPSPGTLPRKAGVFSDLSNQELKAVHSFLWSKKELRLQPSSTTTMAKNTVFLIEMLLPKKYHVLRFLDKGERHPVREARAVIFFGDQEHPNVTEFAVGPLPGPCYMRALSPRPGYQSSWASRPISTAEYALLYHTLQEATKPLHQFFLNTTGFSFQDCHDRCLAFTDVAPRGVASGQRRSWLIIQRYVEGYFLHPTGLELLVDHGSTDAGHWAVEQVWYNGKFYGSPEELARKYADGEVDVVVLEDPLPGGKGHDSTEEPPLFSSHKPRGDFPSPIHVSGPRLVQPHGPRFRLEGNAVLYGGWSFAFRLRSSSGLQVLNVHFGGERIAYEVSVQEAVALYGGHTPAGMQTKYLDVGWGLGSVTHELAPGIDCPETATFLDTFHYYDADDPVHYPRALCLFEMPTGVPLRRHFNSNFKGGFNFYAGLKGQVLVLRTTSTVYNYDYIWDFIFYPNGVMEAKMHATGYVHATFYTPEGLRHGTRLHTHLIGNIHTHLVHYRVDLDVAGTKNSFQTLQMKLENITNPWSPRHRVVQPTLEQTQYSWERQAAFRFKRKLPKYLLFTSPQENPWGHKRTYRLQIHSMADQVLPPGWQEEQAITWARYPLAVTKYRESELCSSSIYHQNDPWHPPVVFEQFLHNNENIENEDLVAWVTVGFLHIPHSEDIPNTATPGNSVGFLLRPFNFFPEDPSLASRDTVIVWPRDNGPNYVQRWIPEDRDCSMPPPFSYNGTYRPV
# Procedure, shortened: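 Inhibition of recombinant human DAO (diamine oxidase, R&D systems) was assessed with the Amplex Red Hydrogen Peroxide Assay Kit. Hydrogen peroxide produced from 1 mM putrescine was detected through an HRP-coupled reaction that converts Amplex Red into fluorescent resorufin, read at 544 nm excitation and 590 nm emission. IC50 values came from four-parameter logistic fits in GraphPad Prism.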
# [2] = molecular target: T2, recombinant human MAO-A (monoamine oxidase-A) (Homo sapiens, UniProt P21397); experiment: Activity on recombinant human MAO-A, Amplex Red method, 0.5 mM tyramine substrate; details: read-out: Inhibitory Activity (IC50, nM) MAO-A
# T2 construct: purchased Sigma-Aldrich
# T2 sequence (P21397 1-527): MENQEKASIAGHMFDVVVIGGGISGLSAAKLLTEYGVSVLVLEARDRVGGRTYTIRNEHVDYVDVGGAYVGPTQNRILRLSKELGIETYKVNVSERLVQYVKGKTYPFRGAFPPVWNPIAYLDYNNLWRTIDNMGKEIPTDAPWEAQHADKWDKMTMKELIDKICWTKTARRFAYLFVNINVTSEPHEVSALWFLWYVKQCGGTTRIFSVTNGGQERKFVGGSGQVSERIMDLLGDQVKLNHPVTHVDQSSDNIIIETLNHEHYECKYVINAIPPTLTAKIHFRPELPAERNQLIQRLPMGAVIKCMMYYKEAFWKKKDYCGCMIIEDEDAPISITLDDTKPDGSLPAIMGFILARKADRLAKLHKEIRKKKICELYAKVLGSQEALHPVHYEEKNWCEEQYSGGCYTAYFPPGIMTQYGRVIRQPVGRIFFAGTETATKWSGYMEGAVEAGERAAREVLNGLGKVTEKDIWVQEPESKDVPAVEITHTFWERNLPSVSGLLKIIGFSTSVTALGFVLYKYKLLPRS
# Procedure, shortened: (§1)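 Fluorescence (544/590 nm) of resorufin formed from Amplex Red by HRP and enzyme-generated H2O2 was followed over 1-2 h. Substrates were 0.5 mM tyramine for MAO-A and 1 mM benzylamine for MAO-B; compounds were preincubated with enzyme for 30 min at 37° C. IC50 came from four-parameter logistic fitting of signal-rate inhibition.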
# [3] = molecular target: T3, recombinant human MAO-B (monoamine oxidase-B) (Homo sapiens, UniProt P27338); experiment: Activity on recombinant human MAO-B, Amplex Red method, 1 mM benzylamine substrate; details: read-out: Inhibitory Activity (IC50, nM) MAO-B
# T3 construct: purchased Sigma-Aldrich
# T3 sequence (P27338 1-520): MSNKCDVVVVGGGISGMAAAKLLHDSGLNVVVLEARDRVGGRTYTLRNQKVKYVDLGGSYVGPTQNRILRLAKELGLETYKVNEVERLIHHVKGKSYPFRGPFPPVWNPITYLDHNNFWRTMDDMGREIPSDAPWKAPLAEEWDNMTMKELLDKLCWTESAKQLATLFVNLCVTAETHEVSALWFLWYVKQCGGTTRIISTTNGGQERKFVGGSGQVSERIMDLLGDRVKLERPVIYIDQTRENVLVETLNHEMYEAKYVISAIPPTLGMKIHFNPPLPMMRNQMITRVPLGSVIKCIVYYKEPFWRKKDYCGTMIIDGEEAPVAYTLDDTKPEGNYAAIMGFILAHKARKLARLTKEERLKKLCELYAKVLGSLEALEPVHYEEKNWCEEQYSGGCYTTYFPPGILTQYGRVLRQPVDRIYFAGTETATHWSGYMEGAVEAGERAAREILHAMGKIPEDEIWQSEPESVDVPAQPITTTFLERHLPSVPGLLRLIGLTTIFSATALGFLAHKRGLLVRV
# Procedure, shortened: as §1
# recombinant human VAP-1 = molecular target: T4, recombinant human VAP-1 (Homo sapiens, UniProt Q16853); experiment: Activity on recombinant human VAP-1, Amplex Red HRP-coupled hydrogen peroxide assay, benzylamine substrate; details: recombinant human VAP-1, benzylamine substrate, read-out: Inhibitory Activity (IC50, nM) human VAP-1
# T4 construct: purchased R&D systems
# T4 sequence (Q16853 1-763): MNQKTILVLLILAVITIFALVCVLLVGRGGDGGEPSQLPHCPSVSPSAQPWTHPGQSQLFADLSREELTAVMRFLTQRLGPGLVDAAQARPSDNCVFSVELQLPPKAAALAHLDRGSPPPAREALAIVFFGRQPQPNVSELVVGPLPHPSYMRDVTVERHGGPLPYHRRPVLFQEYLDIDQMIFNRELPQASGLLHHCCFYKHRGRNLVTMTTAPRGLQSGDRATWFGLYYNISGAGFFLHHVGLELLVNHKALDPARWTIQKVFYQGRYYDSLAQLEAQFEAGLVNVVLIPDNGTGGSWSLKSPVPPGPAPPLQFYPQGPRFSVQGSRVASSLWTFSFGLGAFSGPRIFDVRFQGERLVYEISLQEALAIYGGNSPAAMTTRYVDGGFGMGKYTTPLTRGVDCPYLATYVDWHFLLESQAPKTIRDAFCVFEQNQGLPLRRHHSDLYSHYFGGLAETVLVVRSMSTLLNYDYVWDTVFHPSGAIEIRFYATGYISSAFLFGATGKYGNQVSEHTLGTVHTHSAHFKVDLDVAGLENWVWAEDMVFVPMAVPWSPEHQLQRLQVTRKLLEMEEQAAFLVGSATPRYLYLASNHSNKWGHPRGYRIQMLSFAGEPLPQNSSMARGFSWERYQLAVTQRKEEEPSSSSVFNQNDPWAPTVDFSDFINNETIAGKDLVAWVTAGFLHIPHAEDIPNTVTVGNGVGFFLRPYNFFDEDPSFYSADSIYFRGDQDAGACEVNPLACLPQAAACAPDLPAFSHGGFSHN
# Procedure, shortened: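 Fluorescence of resorufin formed from H2O2 (ex 544 nm, em 590 nm) was tracked for 1-2 h after adding 1 mM benzylamine, 200 uM Amplex Red and 1 U/mL HRP to enzyme pretreated with compound for 30 min at 37 °C. IC50 values derive from four-variable logistic fits.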
# [4] = 1 mM putrescine, * = between 10 and 100 nM, ** = between 300 and 1000 nM
Compound,IC50 ([1]; 1 mM putrescine substrate) [nM],IC50 ([2]; 0.5 mM tyramine substrate) [nM],IC50 ([3]; 1 mM benzylamine substrate) [nM],IC50 (recombinant human VAP-1) [nM],"IC50 [1, 4] [nM]",IC50 ([2]; 0.5 mM tyramine) [nM],IC50 ([3]; 1 mM benzylamine) [nM],IC50 (recombinant human VAP-1; 30 min preincubation at 37° C.) [nM]
"CN(C)c1ncc(-c2cccc(-n3cnn(C/C(=C/F)CN)c3=O)n2)cc1F [Example 191, 2-[(2E)-2-(aminomethyl)-3-fluoroprop-2-en-1-yl]-4-[6′-(dimethylamino)-5′-fluoro-2,3′-bipyridin-6-yl]-2,4-dihydro-3H-1,2,4-triazol-3-one hydrochloride]",19,> 100000,1200,0.5,–,–,–,–
"Cc1cc(-c2ccc(-c3noc(C4CC4)n3)cc2)cnc1-n1cnn(C/C(=C/F)CN)c1=O [Example 141, 2-[(2E)-2-(aminomethyl)-3-fluoroprop-2-en-1-yl]-4-{5-[4-(5-cyclopropyl-1,2,4-oxadiazol-3-yl)phenyl]-3-methylpyridin-2-yl}-2,4-dihydro-3H-1,2,4-triazol-3-one hydrochloride]",–,–,–,–,110,> 100000,7090,0.88
"NC/C(=C\F)Cn1ncn(-c2ccc(-c3ccc4c(c3)OCO4)cc2F)c1=O [Example 45, 2-[(2E)-2-(aminomethyl)-3-fluoroprop-2-en-1-yl]-4-[4-(1,3-benzodioxol-5-yl)-2-fluorophenyl]-2,4-dihydro-3H-1,2,4-triazol-3-one hydrochloride]",–,–,–,–,1.6,198,< 10,0.21
"NC/C(=C\F)Cn1ncn(-c2cccc(-c3ccc(-c4ccc5c(c4)OCO5)cc3)c2)c1=O [Example 70, 2-[(2E)-2-(aminomethyl)-3-fluoroprop-2-en-1-yl]-4-[4′-(1,3-benzodioxol-5-yl)biphenyl-3-yl]-2,4-dihydro-3H-1,2,4-triazol-3-one hydrochloride]",–,–,–,–,< 30,> 100000,1620,0.63
"NC/C(=C\F)Cn1ncn(-c2cccc(-c3ccc(C(F)(F)F)nc3)n2)c1=O [Example 187, 2-[(2E)-2-(aminomethyl)-3-fluoroprop-2-en-1-yl]-4-[6′-(trifluoromethyl)-2,3′-bipyridin-6-yl]-2,4-dihydro-3H-1,2,4-triazol-3-one hydrochloride]",< 10,> 100000,940,0.45,–,–,–,–
"NC/C(=C\F)Cn1ncn(-c2cc(C#Cc3ccncc3)ccn2)c1=O [Example 246, 2-[(2E)-2-(aminomethyl)-3-fluoroprop-2-en-1-yl]-4-[4-(pyridin-4-ylethynyl)pyridin-2-yl]-2,4-dihydro-3H-1,2,4-triazol-3-one hydrochloride]",12,> 100000,130,0.5,–,–,–,–
"NC/C(=C/F)Cn1ncn(-c2cccc(-c3ccc4c(c3)OCO4)c2)c1=O [Example 92, 2-[(2Z)-2-(aminomethyl)-3-fluoroprop-2-en-1-yl]-4-[3-(1,3-benzodioxol-5-yl)phenyl]-2,4-dihydro-3H-1,2,4-triazol-3-one hydrochloride]",–,–,–,–,41,9.69,1350,1.1
"Cc1cc(-n2cnn(C/C(=C/F)CN)c2=O)ncc1Br [Example 34, 2-[(2E)-2-(aminomethyl)-3-fluoroprop-2-en-1-yl]-4-(5-bromo-4-methylpyridin-2-yl)-2,4-dihydro-3H-1,2,4-triazol-3-one hydrochloride]",–,–,–,–,13,6100,363,0.6
"Cc1cc(-c2cc(C)c3c(c2)CCC(=O)N3)cnc1-n1cnn(C/C(=C/F)CN)c1=O [Example 154, 6-(6-{1-[(2E)-2-(aminomethyl)-3-fluoroprop-2-en-1-yl]-5-oxo-1,5-dihydro-4H-1,2,4-triazol-4-yl}-5-methylpyridin-3-yl)-8-methyl-3,4-dihydroquinolin-2(1H)-one hydrochloride]",190,> 100000,3000,0.3,–,–,–,–
"Cc1cc(-c2ccc(C(F)(F)F)nc2)cnc1-n1cnn(C/C(=C/F)CN)c1=O [Example 148, 2-[(2E)-2-(aminomethyl)-3-fluoroprop-2-en-1-yl]-4-[5-methyl-6′-(trifluoromethyl)-3,3′-bipyridin-6-yl]-2,4-dihydro-3H-1,2,4-triazol-3-one hydrochloride]",–,–,–,–,35,160000,> 10000,0.4
"NC/C(=C\F)Cn1ncn(-c2cccc(-c3ccc(N4CCOCC4)cc3)c2)c1=O [Example 74, 2-[(2E)-2-(aminomethyl)-3-fluoroprop-2-en-1-yl]-4-[4′-(morpholin-4-yl)biphenyl-3-yl]-2,4-dihydro-3H-1,2,4-triazol-3-one hydrochloride]",–,–,–,–,282,> 100000,> 10000,0.84

# Reference: patent US11492335B2, “Aryl or heteroaryl triazolone derivatives or salts thereof, or pharmaceutical compositions comprising the same” (YUHAN CORPORATION, priority 2018, dated 2022)
